Results on 17 molecules are retold here after patent US8563730B2, “Pyrazole and fused pyrazole glucokinase activators” (Takeda San Diego, Inc., priority 2008, dated 2013).

For this test, the target named is T1, GK (glucokinase, residues 12-465) (Homo sapiens, UniProt P35557).
T1 construct: I.D. No. 1 corresponds to residues 12-465 of glucokinase; made in house; host or cells: DH10b-T1r E. coli
T1 sequence (P35557 with tags, fused parts or gaps isoform P35557-2): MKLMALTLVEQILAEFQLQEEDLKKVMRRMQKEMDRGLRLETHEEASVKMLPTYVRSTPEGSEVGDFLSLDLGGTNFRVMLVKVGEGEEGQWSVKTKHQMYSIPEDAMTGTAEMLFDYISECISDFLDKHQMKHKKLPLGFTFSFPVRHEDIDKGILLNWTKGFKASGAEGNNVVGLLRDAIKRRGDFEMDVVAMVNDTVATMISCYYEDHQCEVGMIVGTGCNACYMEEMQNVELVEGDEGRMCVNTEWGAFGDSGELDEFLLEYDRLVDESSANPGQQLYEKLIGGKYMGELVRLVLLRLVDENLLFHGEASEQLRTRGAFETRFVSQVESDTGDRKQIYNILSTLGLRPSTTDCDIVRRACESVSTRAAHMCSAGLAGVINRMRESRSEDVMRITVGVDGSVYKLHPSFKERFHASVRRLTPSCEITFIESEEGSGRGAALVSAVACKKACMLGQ
As to the kind of experiment: enzymatic glucokinase activity assay (ATP consumption, KinaseGlo luminescence). Type of test: biochemical. To be noted: 5 μM ATP, 5 mM Glucose, reported as bins; for EC50: read-out: pKact. In short, it runs like this:
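E. coli-expressed recombinant GK purified by two anion-exchange steps. Reaction in 25 mM Hepes pH 7.2, 10 mM MgCl2, 1 mM DTT, 5 μM ATP, 5 mM glucose, 2% DMSO, 60 min at room temperature. ATP consumption quantified by KinaseGlo luminescence; pKact and % ACTmax derived by non-linear curve fitting.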
(Kinase-Glo measures the ATP left after a reaction by luminescence.)

Where [1] appears, read: Kact = concentration that displays 50% of the maximal increase in GK activity, 60 min, room temperature.
Where [2] appears, read: calculated maximal gain in GK enzyme activity at a saturating concentration of the compound, read-out: % ACTmax.
Where [3] appears, read: calculated maximal gain in GK enzyme activity at a saturating concentration of the compound.

Structures can show the parent of a compound that is named as a salt. Where two headings read alike, the source gives them in different places. Bounds are passed on as bounds.

With `COc1ccc2c(cnn2[C@H](CC2CCOCC2)C(=O)Nc2ncc(F)s2)c1S(=O)(=O)C1CC1` [Compound 81, (R)-2-(4-(cyclopropylsulfonyl)-5-methoxy-1H-indazol-1-yl)-N-(5-fluorothiazol-2-yl)-3-(tetrahydro-2H-pyran-4-yl)propanamide], the EC50 under setting [1] is 3980 to 12600 nM. In addition, the Emax under setting [2] is 101 to 105%.
As for `N#Cc1cnc(NC(=O)C(CC2CCOCC2)n2ncc3c(S(=O)(=O)C4CC4)cccc32)nc1` (stereo not shown) [Compound 126, N-(5-cyanopyrimidin-2-yl)-2-(4-(cyclopropylsulfonyl)-1H-indazol-1-yl)-3-(tetrahydro-2H-pyran-4-yl)propanamide], under setting [1], the EC50 was at least 15800 nM. Further, under setting [2], the Emax was at most 90%.
On the same counts, the results for `O=C(Nc1ncc(F)s1)C(CC1CCOCC1)n1ncc2c(S(=O)(=O)C3CC3)cc(O)cc21` (stereo not shown) [Compound 130, 2-(4-(cyclopropylsulfonyl)-6-hydroxy-1H-indazol-1-yl)-N-(5-fluorothiazol-2-yl)-3-(tetrahydro-2H-pyran-4-yl)propanamide] are at most 316 nM and 101 to 105%.
On the same counts, the results for `Cn1ccc(NC(=O)C(CC2CCOCC2)n2cc3c(S(=O)(=O)C4CC4)cc(Cl)cc3n2)n1` (stereo not shown) [Compound 167, 2-(6-chloro-4-(cyclopropylsulfonyl)-2H-indazol-2-yl)-N-(1-methyl-1H-pyrazol-3-yl)-3-(tetrahydro-2H-pyran-4-yl)propanamide] are 3980 to 12600 nM and at most 90%.
On the same counts, the results for `Cn1ccc(NC(=O)[C@@H](CC2CCOCC2)n2ncc3c(S(=O)(=O)C4CC4)ccnc32)n1` [Compound 99, (R)-2-(4-(cyclopropylsulfonyl)-1H-pyrazolo[3,4-b]pyridin-1-yl)-N-(1-methyl-1H-pyrazol-3-yl)-3-(tetrahydro-2H-pyran-4-yl)propanamide] are 3980 to 12600 nM and 90 to 100%.
As to `O=C(Nc1ncc(Cl)s1)C(CC1CCOCC1)n1cc(S(=O)(=O)C2CCCC2)cn1` (stereo not shown) [Compound 5, N-(5-chlorothiazol-2-yl)-2-(4-(cyclopentylsulfonyl)-1H-pyrazol-1-yl)-3-(tetrahydro-2H-pyran-4-yl)propanamide], the EC50 under setting [1] lay in the range of 398 to 1260 nM. Moreover, for the setting “read-out: % ACTmax, calculated maximal gain in GK enzyme activity at a saturating concentration of the compound”, the Emax was at least 111%.
Consider `COc1ccc2c(cnn2[C@@H](CC2CCOCC2)C(=O)Nc2ncc(F)s2)c1S(=O)(=O)C1CC1` [Compound 82, (S)-2-(4-(cyclopropylsulfonyl)-5-methoxy-1H-indazol-1-yl)-N-(5-fluorothiazol-2-yl)-3-(tetrahydro-2H-pyran-4-yl)propanamide], for which the EC50 under setting [1] is at most 316 nM. Further, the Emax under setting [2] is 106 to 110%.
On the same counts, the results for `COc1ccc2c(cnn2C(CC2CCOCC2)C(=O)Nc2ccn(C)n2)c1S(=O)(=O)C1CC1` (racemic) [Compound 15, 2-(4-(cyclopropylsulfonyl)-5-methoxy-1H-indazol-1-yl)-N-(1-methyl-1H-pyrazol-3-yl)-3-(tetrahydro-2H-pyran-4-yl)propanamide] are 398 to 1260 nM and 90 to 100%.
On the same counts, the results for `Nc1cc(S(=O)(=O)C2CC2)c2cnn(C(CC3CCOCC3)C(=O)Nc3ncc(F)s3)c2c1` (stereo not shown) [Compound 142, 2-(6-amino-4-(cyclopropylsulfonyl)-1H-indazol-1-yl)-N-(5-fluorothiazol-2-yl)-3-(tetrahydro-2H-pyran-4-yl)propanamide] are at most 316 nM and 101 to 105%.
As for `Cc1ccc(NC(=O)C(CC2CCOCC2)n2ncc3c(S(=O)(=O)C4CC4)cccc32)nn1` (stereo not shown) [Compound 116, 2-(4-(cyclopropylsulfonyl)-1H-indazol-1-yl)-N-(6-methylpyridazin-3-yl)-3-(tetrahydro-2H-pyran-4-yl)propanamide], under setting [1], the EC50 is 3980 to 12600 nM. Also, under setting [2], the Emax was at most 90%.
On the same counts, the results for `Cn1ccc(NC(=O)[C@H](CC2CCOCC2)n2ncc3c(S(=O)(=O)C4CC4)cncc32)n1` [Compound 159, (S)-2-(4-(cyclopropylsulfonyl)-1H-pyrazolo[3,4-c]pyridin-1-yl)-N-(1-methyl-1H-pyrazol-3-yl)-3-(tetrahydro-2H-pyran-4-yl)propanamide] are 1580 to 3160 nM and 101 to 105%.
On to `O=C(Nc1ncc(F)s1)C(CC1CCOCC1)n1ncc2c(S(=O)(=O)C3CC3)ccc(Cl)c21` (stereo not shown) [Compound 23, 2-(7-chloro-4-(cyclopropylsulfonyl)-1H-indazol-1-yl)-N-(5-flourothiazol-2-yl)-3-(tetrahydro-2H-pyran-4-yl)propanamide], for which the pKact result under setting [1] is “≧6.5”. For the same molecule, the “% ACTmax” value under setting [3] is given as “≧111%”.
`O=C(Nc1cnccn1)C(CC1CCOCC1)n1ncc2c(S(=O)(=O)C3CC3)cncc21` (stereo not shown) [20 (TFA Salt), 2-(4-(cyclopropylsulfonyl)-1H-pyrazolo[3,4-c]pyridin-1-yl)-N-(pyrazin-2-yl)-3-(tetrahydro-2H-pyran-4-yl)propanamide]: the EC50 under setting [1] was in the range of 1580 to 3160 nM. Also, the “% ACTmax” value under setting [3] is given as 106-110%.
For the molecule `COc1ccc2c(cnn2[C@H](CC2CCOCC2)C(=O)Nc2cnccn2)c1S(=O)(=O)C1CC1` [Compound 93, (R)-2-(4-(cyclopropylsulfonyl)-5-methoxy-1H-indazol-1-yl)-N-(pyrazin-2-yl)-3-(tetrahydro-2H-pyran-4-yl)propanamide], under setting [1], the EC50 was at least 15800 nM. Moreover, the Emax under setting [2] was at most 90%.
For the molecule `O=C(Nc1ncc(F)s1)C(CC1CCOCC1)n1ncc2c(S(=O)(=O)C3CC3)cc(Cl)cc21` (stereo not shown) [Compound 121, 2-(6-chloro-4-(cyclopropylsulfonyl)-1H-indazol-1-yl)-N-(5-fluorothiazol-2-yl)-3-(tetrahydro-2H-pyran-4-yl)propanamide], the EC50 under setting [1] is at most 316 nM. The Emax under setting [2] was 90 to 100%.
On the same counts, the results for `O=C(Nc1cnccn1)C(CC1CCOCC1)n1ncc2c(S(=O)(=O)C3CC3)c(F)ccc21` (stereo not shown) [Compound 154, 2-(4-(cyclopropylsulfonyl)-5-fluoro-1H-indazol-1-yl)-N-(pyrazin-2-yl)-3-(tetrahydro-2H-pyran-4-yl)propanamide] are at most 316 nM and 106 to 110%.
As for `Cn1ccc(NC(=O)C(CC2CCOCC2)n2ncc3c(S(=O)(=O)C4CC4)cc(C#N)cc32)n1` (stereo not shown) [Compound 19, 2-(6-cyano-4-(cyclopropylsulfonyl)-1H-indazol-1-yl)-N-(1-methyl-1H-pyrazol-3-yl)-3-(tetrahydro-2H-pyran-4-yl) propanamide], the EC50 under setting [1] was at most 316 nM. The Emax under setting [2] was at most 90%.
